Drawing on patent publication US20190241535A1, “3-SUBSTITUTED CARBONYL-NAPHTHO[2,3-B]FURANE DERIVATIVE OR PHARMACEUTICALLY ACCEPTABLE SALT THEREOF” (Boston Biomedical, Inc., priority 2014, published 2019), this text covers IC50 and solubility for nine molecules.

In data set [1] the test system is FaDu cell. Nature of the data set: Test 1: growth inhibition in cancer cell (Bulk IC50). It counts as cell-based. The conditions noted are these: Homo sapiens, 96 h, adherent culture, incubated 4 days, CellTiter-Glo. As for the experimental part: (§1) HCT-116 cell, HT-29 cell, and FaDu cell were obtained from the American Type Culture Collection (ATCC). HCT-116 cell and HT-29 cell were cultivated at 37° C. in the presence of 5% CO2 using McCoy's 5a medium containing 10% fetal bovine serum (FBS), and 1% penicillin/streptomycin; and FaDu cell was cultivated at 37° C. in the presence of 5% CO2 using MEM containing 10% FBS, 1% non-essential amino acid, 1% sodium pyruvate, and 1% penicillin/streptomycin. Each cell was seeded on μClear-plate black 384 wells (Greiner bio-one Cat. No. 781091) in 300-600 cells/well, and then each test sample was added thereto to adjust the final concentration thereof in DMSO to 0.1% and the test wells were incubated for 4 days. And then, the viable cell count of each sample was measured using CellTiter-Glo® Luminescent Cell Viability Assay (Promega), and the concentration to inhibit the cell growth in each test sample by 50% was calculated (Bulk IC50 Value; μM).
(ATP-based viability assays read luminescence as a measure of living cells.)

Data set [2] deals with HCT-116 cell. The description is as above. It counts as cell-based. Particulars: Homo sapiens, 96 h, adherent culture, incubated 4 days, CellTiter-Glo. As for the experimental part: as §1
For data set [3], the system named is HT-29 cell. Described as above. It counts as cell-based. The conditions noted are these: Homo sapiens, 96 h, adherent culture, incubated 4 days, CellTiter-Glo. As for the experimental part:
as §1

In data set [4] the test system is FaDu cell. Nature of the data set: Test 2: inhibition of forming cancer cell sphere (Sphere IC50). It counts as cell-based. The conditions noted are these: Homo sapiens, 96 h, ultra-low attachment plate, serum-free sphere medium, 4 days, CellTiter-Glo. As for the experimental part:
(§2) HCT-116 cell, HT-29 cell, and FaDu cell were obtained from the American Type Culture Collection (ATCC). HCT-116 cell and HT-29 cell were cultivated at 37° C. in the presence of 5% CO2 using McCoy's 5a medium containing 10% fetal bovine serum (FBS), and 1% penicillin/streptomycin; and FaDu cell was cultivated at 37° C. in the presence of 5% CO2 using MEM containing 10% FBS, 1% non-essential amino acid, 1% sodium pyruvate, and 1% penicillin/streptomycin. Each of HCT-116 cell, HT-29 cell, and FaDu cell was seeded on 384 Wells Black Clear Bottom Ultra-Low Attachment Microplate (Corning Cat. No. 3827) in 350-800 cells/well, with DMEM/F12 medium containing 2% B27 supplement (GIBCO), 20 ng/mL epidermal growth factor (EGF) (peprotech), 10 ng/mL basic fibroblast growth factor (bFGF) (peprotech), 5 μg/mL insulin (Sigma), and 1% penicillin/streptomycin. Each test sample was added thereto to adjust the final concentration thereof in DMSO to 0.1% and the test wells were incubated for 4 days. And then, the viable cell count of each sample was measured using CellTiter-Glo® Luminescent Cell Viability Assay (Promega), and the concentration to inhibit the cell growth in each test sample by 50% was calculated (Sphere IC50 Value;μM).

In data set [5] the test system is HCT-116 cell. The description is as above. It counts as cell-based. The conditions noted are these: Homo sapiens, 96 h, ultra-low attachment plate, serum-free sphere medium, 4 days, CellTiter-Glo. As for the experimental part: as §2
Data set [6] deals with HT-29 cell. Described as above. It is filed as cell-based. The conditions noted are these: Homo sapiens, 96 h, ultra-low attachment plate, serum-free sphere medium, 4 days, CellTiter-Glo. As for the experimental part:
as §2

A short description of the next data set: Test 3: solubility test. It is filed as physicochemical. Particulars: kinetic from dmso stock, 1% DMSO, HPLC. As for the experimental part:
Each 15 μL of each test sample (10 mM DMSO solution) was dispensed into 4 Utubes on a 96 well rack. Then, each sample was evaporated to dryness with a rotary evaporator. 3 μL of DMSO was added to each dried sample to be re-dissolved. And, 300 μL of pH 7.4 buffer was added to the 2 wells and 300 μL of pH 1.2 buffer was added to the other 2 wells. After shaking each sample solution, the samples were still stood. Then, each sample solution was centrifuged to remove insoluble matter, and 100 μL of the supernatant was picked up on a 96 well plate. Separately, 2 μL of each test sample (10 mM DMSO solution) was dispensed on a 96 well plate, and diluted with 198 μL of 50% acetonitrile to prepare each 100 μM standard solution. Further, the 100 μM standard solution was diluted with 50% acetonitrile to prepare each 10 μM standard solution. The above test samples for the solubility test and the two kinds of the standard samples were analyzed with a HPLC. The solubility of each test sample was calculated as an area ratio per the standard solutions.

[7] abbreviates: aqueous buffer, pH 7.4 buffer, read-out: Solubility pH 7.4.
[8] abbreviates: simulated gastric fluid, pH 1.2 buffer, read-out: Solubility pH 1.2.

Structures are written as SMILES. pIC50: −log10 of the molar value. Values after ≈ are worked out from the molar mass of the structure shown. Structures can show the parent of a compound that is named as a salt. Where two headings read alike, the source gives them in different places. Some results are limits rather than exact numbers.

Turning to `COC(=O)c1c(C(C)(OC)OC)oc2c1C(=O)c1ccccc1C2=O` [Example 1, Methyl 2-(1,1-dimethoxyethyl)-4,9-dioxo-4,9-dihydronaphtho[2,3-b]furan-3-carboxylate], the pIC50 with FaDu cell [1] was 6.42; with HCT-116 cell [2], 6.36; in the data set with HT-29 cell [3] it was 5.65; with FaDu cell [4], 5.67; in the data set with HCT-116 cell [5], 5.76; with HT-29 cell [6] it was 5.66.

Take `COC(=O)c1c(C(C)=O)oc2c1C(=O)c1ccccc1C2=O` [Example 2, Methyl 2-acetyl-4,9-dioxo-4,9-dihydronaphtho[2,3-b]furan-3-carboxylate]: the pIC50 was 6.49 in the data set on FaDu cell [1]; 6.55 with HCT-116 cell [2]; 6.47 in the data set on HT-29 cell [3]; 6.23 in the data set with FaDu cell [4]; 6.42 with HCT-116 cell [5]; 6.40 with HT-29 cell [6]. Besides, the solubility is 0.5 µg/mL (≈ 1.68 µM) in the data set “Test 3: solubility test” (setting [7]) and 0.8 µg/mL (≈ 2.68 µM) in “Test 3: solubility test” (setting [8]).

`CC(=O)c1oc2c(c1C(=O)N(C)C)C(=O)c1ccccc1C2=O` [Example 4, 2-Acetyl-N,N-dimethyl-4,9-dioxo-4,9-dihydronaphtho[2,3-b]furan-3-carboxamide]: the pIC50 is 6.25 in the data set with FaDu cell [1]; 6.23 in the data set on HCT-116 cell [2]; 6.15 in the data set on HT-29 cell [3]; 6.15 with FaDu cell [4]; 5.47 in the data set with HCT-116 cell [5]; 6.07 in the data set with HT-29 cell [6]. The solubility in “Test 3: solubility test” (setting [7]) is 107 µg/mL (≈ 344 µM); in the data set “Test 3: solubility test” (setting [8]), 115 µg/mL (≈ 369 µM).

Take `CC(=O)c1oc2c(c1C(=O)N1CCN(C)CC1)C(=O)c1ccccc1C2=O` [Example 5, 2-Acetyl-3-(4-methylpiperazine-1-carbonyl)naphtho[2,3-b]furan-4,9-dione hydrochloride]: the pIC50 with FaDu cell [1] was 6.27; in the data set on HCT-116 cell [2], 6.21; in the data set on HT-29 cell [3], 6.24; in the data set with FaDu cell [4] it was 6.18; with HCT-116 cell [5], 5.51; in the data set with HT-29 cell [6] it was 6.22. Moreover, the solubility in “Test 3: solubility test” (setting [7]) was 127 µg/mL; in the data set “Test 3: solubility test” (setting [8]), 152 µg/mL.

For `COC(=O)c1c(C(F)(F)F)oc2c1C(=O)c1ccccc1C2=O` [Example 6, Methyl 4,9-dioxo-2-(trifluoromethyl)-4,9-dihydronaphtho[2,3-b]furan-3-carboxylate], the pIC50 was 5.58 with FaDu cell [1]; 5.63 in the data set with HCT-116 cell [2]; 5.55 in the data set with HT-29 cell [3]; 5.44 in the data set on FaDu cell [4]; 5.55 with HCT-116 cell [5]; 5.52 with HT-29 cell [6].

`CN(C)C(=O)c1c(-c2ccc(F)cc2)oc2c1C(=O)c1ccccc1C2=O` [Example 11, 2-(4-Fluorophenyl)-N,N-dimethyl-4,9-dioxo-4,9-dihydronaphtho[2,3-b]furan-3-carboxamide]: the negative-log IC50 (pIC50) in the data set on FaDu cell [1] was 5.35; in the data set with HCT-116 cell [2] it was 5.27; with HT-29 cell [3], 5.24; in the data set on FaDu cell [4], 5.35; in the data set with HCT-116 cell [5], 5.27; with HT-29 cell [6], 5.23. The solubility in “Test 3: solubility test” (setting [7]) and in “Test 3: solubility test” (setting [8]) was < 0.1 µg/mL in each case.

As for `COC(=O)c1c(-c2cccnc2)oc2c1C(=O)c1ccccc1C2=O` [Example 12, Methyl 4,9-dioxo-2-(pyridin-3-yl)-4,9-dihydronaphtho[2,3-b]furan-3-carboxylate], the pIC50 is 5.63 in the data set with FaDu cell [1]; 5.16 in the data set on HCT-116 cell [2]; < 5.00 in the data set with HT-29 cell [3]; 5.24 with FaDu cell [4]; < 5.00 with HCT-116 cell [5]; < 5.00 in the data set with HT-29 cell [6].

For the molecule `CC(=O)c1oc2c(c1C(=O)N1CCOCC1)C(=O)c1ccccc1C2=O` [Example 14, 2-Acetyl-3-(morpholine-4-carbonyl)naphtho[2,3-b]furan-4,9-dione], the negative logarithm of the IC50 (pIC50) was 6.12 in the data set with FaDu cell [1]; 6.13 with HCT-116 cell [2]; 5.45 in the data set with HT-29 cell [3]; 6.27 with FaDu cell [4]; 5.74 with HCT-116 cell [5]; 6.15 in the data set with HT-29 cell [6]. Besides, the results for the solubility in the data set “Test 3: solubility test” (setting [7]) and in the data set “Test 3: solubility test” (setting [8]) were 121 µg/mL (≈ 342 µM) and 131 µg/mL (≈ 371 µM), respectively.

As for `CN(C)C(=O)c1c(C(F)(F)F)oc2c1C(=O)c1ccccc1C2=O` [Example 21, N,N-dimethyl-4,9-dioxo-2-(trifluoromethyl)-4,9-dihydronaphtho[2,3-b]furan-3-carboxamide], the negative-log IC50 (pIC50) with FaDu cell [1] is 6.52; in the data set with HCT-116 cell [2], 6.57; in the data set with HT-29 cell [3], 6.52; in the data set with FaDu cell [4] it was 6.39; with HCT-116 cell [5], 6.49; in the data set with HT-29 cell [6] it was 6.49. The values for the solubility in the data set “Test 3: solubility test” (setting [7]) and in “Test 3: solubility test” (setting [8]) were 38 µg/mL (≈ 113 µM) and 63 µg/mL (≈ 187 µM), respectively.

The term pIC50 denotes −log10 of the IC50, conventionally taken in molar units. Usually solubility stands for the dissolved amount per volume that the medium holds.
